In patent publication US4618677A, “Substituted phenylalkyl-(piperazinyl or homopiperazinyl)alkyl-thiols and -thiocarbamates useful for the treatment of immunological, inflammatory, and allergic disorders” (Boehringer Ingelheim Limited, priority 1984, dated 1986):
Values joined by “and” are separate entries in the source; they are usually repeats but may differ in a detail not shown here. Identical values can stand only once. Counter-ions that a name gives are not always drawn. Like-named read-outs stand apart in the source and are kept apart here.

Columns and labels:
[1] = system: human leukocytes (basophils); assay: Inhibition of IgE-mediated histamine release from human leukocytes (basophils), Procedure A; assay type: cell-based; settings: for IC50: Leukocyte, 1 h, read-out: In Vitro Inhibition of Histamine Release IC50 (μM) Procedure A
Description: A. Procedure for Determining Inhibition of Histamine Release from Human Leukocytes (Basophils)
Separation of Leukocytes: A modification of the method of L. Lichtenstein and A. Osler, J. Exp. Med. 120, 507 (1964) is used. Heparinized human blood (80-100 ml) is mixed with 20 ml of saline (0.2%) containing 0.6 gm of dextrose and 1.2 gm of dextran in propylene centrifuge tubes. The mixture is kept at ambient temperature for 60-90 minutes to allow the separation of erythrocytes from the platelet-leukocyte-rich supernate. The supernate is removed and centrifuged for 8 minutes at 110 ×g in cold. The leukocyte pellet is washed twice with Tris buffer and finally suspended in 150-180 ml Tris-ACM buffer at 1-2 ×10^6 cells/ml.
Reaction Mixture: The reaction is carried out in 12×75 mm plastic tubes at a total volume of 1.23 ml. The reaction medium includes 0.05 ml rabbit anti-human IgE (the antigen), 0.2 ml of the test compound in water at concentrations ranging from 10-100 μM, and 1.0 ml of the leukocyte suspension. The reaction mixture is incubated in a 37° C. shaking water bath for 60 minutes. Upon completion of the reaction, the tubes are centrifuged and the supernatants collected. The protein is removed from the supernatants by precipitation with 0.2 ml of 8% perchloric acid.
Histamine Assay: Histamine release is measured by the automated fluorometric method of W. Siraganian and W. Hook in Chapter 102 of the Manual of Clinical Immunology, 2nd Edition, edited by R. Rose and H. Friedman, published by the American Society for Microbiology, Washington, D.C., 1980. Percent inhibition is calculated as follows: [formula]
The concentration which causes a 50 percent inhibition (IC50) of histamine release is interpolated from a plot of percent inhibition versus logarithm of drug concentration.

[2] = target: T1, histamine (H1) receptor (Cavia porcellus, UniProt P31389); assay: Antagonism of histamine-induced contraction of isolated guinea pig ileum; assay type: tissue-based; settings: histamine final concentration 0.2 μg/ml, 50% reduction of contractile response, read-out: Inhibition IC50 (μM) of histamine-induced contraction
T1 construct: contraction of isolated guinea pig ileum; from tissue; host or cells: isolated guinea pig ileum
Text: Certain compounds of formula I inhibit in vitro the histamine-induced contraction of isolated guinea pig ileum and are useful in warm-blooded animals for antagonizing the action of histamine at the histamine (H1) receptor. Accordingly, these compounds can be employed in a conventional manner as antihistamine agents for the treatment of allergic disorders, for example allergic rhinitis, vasomotor rhinitis, allergic conjunctivitis, hay fever, urticaria, and food allergies.
The antagonism of the effects of histamine on the contraction of isolated guinea pig ileum by the compounds of formula I can be determined by the procedure of G. Possanza, A. Bauen, and P. Stewart, Int. Arch. Allergy Appl. Immunol., 49, 289 (1975). The degree of inhibition is determined as the difference between the contraction caused by histamine (final concentration 0.2 μg/ml) alone and that seen in the presence of both histamine and the test compound. The inhibitory activity of the test compound is expressed as that concentration of the compound which causes a 50% reduction of the contractile response (IC50).

[3] = system: guinea pig basophils; assay: Inhibition of histamine release from guinea pig basophils, Procedure C; assay type: cell-based; settings: Cavia porcellus, 1 h; from guinea pig basophils (ovalbumin-sensitized); 60 min at 37° C.; > = no response detected at highest dose indicated; read-out: In Vitro Inhibition of Histamine Release IC50 (μM) Procedure C
Description: C. Procedure for Determining Inhibition of Histamine Release from Guinea Pig Basophils
1. In Vivo Sensitization: Male Hartley guinea pigs (200-300 gm) are immunized on day 0 with two 0.05 ml intradermal injections of 200 μg ovalbumin. Sensitized basophils are available between days 13-25 post-sensitization. This mode of sensitization favors IgE response.
2. Separation of Leukocytes: The method of Lett-Brown et al., Int. Arch. Allergy, Appl. Immun. 64, 241 (1981) is used. Animals are anesthetized with ether and are bled via cardiac puncture, with plastic syringes containing sufficient EDTA to provide a final concentration of 10 mM.
One part of 3% gelatin in saline at 37° C. is mixed with 2 parts of blood in a 16×150 mm tube. The cells are allowed to sediment at a 30° angle for 45 minutes in a 37° C. water bath. The leukocyte-rich plasma is collected and centrifuged at 150×g for 30 minutes at room temperature. The pelleted cells are washed in Hepes-buffered saline (HG) containing 4 mM EDTA and resuspended in Hepes-buffered saline containing […] and Ca^++ (HGCM) at 4-5×10^6 cells/ml.
3. Reaction Mixture: The reaction is carried out in 12×75 mm plastic tubes and a total volume of 1.2 ml which includes 0.5 ml of antigen, 0.2 ml of drug solution at concentrations ranging from 10-1000 μM and 0.5 ml of prewashed cell suspension. The reaction mixture is incubated in a 37° C. shaking water bath for 60 minutes. Upon completion of the reaction, the tubes are centrifuged and the supernatants collected. The protein is removed from the supernatants by precipitation with 0.2 ml of 8% perchloric acid.
4. Histamine Assay: Histamine release is measured by the automated fluorometric method of Siraganian, supra. The concentration which causes a 50 percent inhibition of histamine release is computed as in Part A.

[4] = system: rat peritoneal mast cells; assay: Inhibition of histamine release from rat peritoneal mast cells, Procedure B; assay type: cell-based; settings: Mast cell, 1 h; from rat peritoneal mast cells; sheep anti-rat IgE or ovalbumin; 60 min at 37° C.; read-out: In Vitro Inhibition of Histamine Release IC50 (μM) Procedure B
Description: B. Procedure for Determining Inhibition of Histamine Release from Rat Peritoneal Mast Cells
Harvest of Peritoneal Mast Cells: After the rats are sacrificed with ether, 20 ml of Minimum Essential Medium (MEM) containing 20 units/ml heparin is injected into the peritoneum. The abdomen is massaged for one minute and the lavage fluid collected. The peritoneal cells are centrifuged at 1800 rpm for 8 minutes in cold. After two washes with Tris A buffer, the cells are resuspended in Tris ACM buffer at 2-4×10^6 cells/ml.
Reaction mixture: The reaction is carried out in 12×75 mm plastic tubes at a total volume of 1.25 ml. The reaction mixture includes 0.5 ml (10-1000 μg) sheep anti-rat IgE or ovalbumin, 0.2 ml of the test compound in water at concentrations ranging from 10-1000 μM, 0.5 ml phosphatidylserine solution (20-60 μg to each tube), and 0.5 ml of cell suspension.
The concentration which causes a 50% inhibition (IC50) of histamine release is computed as in Part A.

[5] = from human basophils, rabbit anti-human IgE as antigen, 60 min at 37° C., > = no response detected at highest dose indicated

T1 sequence (P31389 whole entry): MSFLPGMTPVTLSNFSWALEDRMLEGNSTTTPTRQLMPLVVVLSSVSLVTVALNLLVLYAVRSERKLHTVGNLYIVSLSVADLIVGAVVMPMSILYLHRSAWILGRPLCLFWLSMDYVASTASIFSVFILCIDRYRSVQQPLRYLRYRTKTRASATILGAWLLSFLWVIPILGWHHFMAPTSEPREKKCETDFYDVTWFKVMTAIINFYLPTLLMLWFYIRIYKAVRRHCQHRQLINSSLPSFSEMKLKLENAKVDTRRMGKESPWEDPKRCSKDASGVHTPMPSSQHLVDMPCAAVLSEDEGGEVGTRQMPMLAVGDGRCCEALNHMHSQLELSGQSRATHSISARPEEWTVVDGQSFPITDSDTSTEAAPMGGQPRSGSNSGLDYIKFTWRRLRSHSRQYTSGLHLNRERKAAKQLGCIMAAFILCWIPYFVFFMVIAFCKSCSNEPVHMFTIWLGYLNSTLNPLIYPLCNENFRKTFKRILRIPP

SMILES | IC50 [1, 5] [µM] | also measured
SCCCN1CCN(Cc2ccccc2)CC1 [Example 1, 3-(4-Benzylpiperazin-1-yl)propanethiol dihydrochloride] |  | IC50 ([1]; Homo sapiens): 140 µM
O=C(Nc1ccccc1)SCCCN1CCN(Cc2ccccc2)CC1 [Example 2, N-Phenyl-S-[3-(4-benzylpiperazin-1-yl)propyl]thiocarbamate dihydrochloride monohydrate] | 310 | 
SCCCN1CCN(Cc2ccc(Cl)cc2)CC1 [Example 3, 3-[4-(4-Chlorobenzyl)piperazin-1-yl]propanethiol dihydrochloride] |  | IC50 ([1]; Homo sapiens): 4 µM
CNC(=O)SCCCN1CCN(Cc2ccc(Cl)cc2)CC1 [Example 4, N-Methyl-S-{3-[4-(4-chlorobenzyl)piperazin-1-yl]propyl}thiocarbamate dihydrochloride] |  | In Vitro Inhibition of Histamine Release IC50 (μM) Procedure A [1, 5]: Int.; IC50 [2]: 0.19 µM
CC(C)NC(=O)SCCCN1CCN(Cc2ccc(Cl)cc2)CC1 [Example 5, N-Isopropyl-S-{3-[4-(4-chlorobenzyl)piperazin-1-yl]propyl}thiocarbamate dihydrochloride] |  | In Vitro Inhibition of Histamine Release IC50 (μM) Procedure A [1, 5]: Int.; IC50 [2]: 0.21 µM and 0.3 µM
O=C(Nc1ccccc1)SCCCN1CCN(Cc2ccc(Cl)cc2)CC1 [Example 7, N-Phenyl-S-{3-[4-(4-chlorobenzyl)piperazin-1-yl]propyl}thiocarbamate dihydrochloride] | 2.6 | IC50 [3]: 13 µM; IC50 [4]: 3 µM
CCCCc1ccc(NC(=O)SCCCN2CCN(Cc3ccc(Cl)cc3)CC2)cc1 [Example 8, N-(4-n-Butylphenyl)-S-{3-[4-(4-chlorobenzyl)piperazin-1-yl]propyl}thiocarbamate dihydrochloride] | 760 | 
O=C(Nc1ccc(F)cc1)SCCCN1CCN(Cc2ccc(Cl)cc2)CC1 [Example 9, N-(4-Fluorophenyl)-S-{3-[4-(4-chlorobenzyl)piperazin-1-yl]propyl}thiocarbamate dihydrochloride] | 11 | IC50 [2]: 0.12 µM
O=C(Nc1ccc(Cl)cc1)SCCCN1CCN(Cc2ccc(Cl)cc2)CC1 [Example 10, N-(4-Chlorophenyl)-S-{3-[4-(4-chlorobenzyl)piperazin-1-yl]propyl}thiocarbamate dihydrochloride monohydrate] | 47 | 
O=C(Nc1ccc(Cl)c(Cl)c1)SCCCN1CCN(Cc2ccc(Cl)cc2)CC1 [Example 11, N-(3,4-Dichlorophenyl)-S-{3-[4-(4-chlorobenzyl)piperazin-1-yl]propyl}thiocarbamate dihydrochloride] | > 1000 | 
COc1ccccc1NC(=O)SCCCN1CCN(Cc2ccc(Cl)cc2)CC1 [Example 12, N-(2-Methoxyphenyl)-S-{3-[4-(4-chlorobenzyl)piperazin-1-yl]propyl}thiocarbamate dihydrochloride sesquihydrate] | > 300 | 
COc1cccc(NC(=O)SCCCN2CCN(Cc3ccc(Cl)cc3)CC2)c1 [Example 13, N-(3-Methoxyphenyl)-S-{3-[4-(4-chlorobenzyl)piperazin-1-yl]propyl}thiocarbamate dihydrochloride] | 140 | 
COc1ccc(NC(=O)SCCCN2CCN(Cc3ccc(Cl)cc3)CC2)cc1 [Example 14, N-(4-Methoxyphenyl)-S-{3-[4-(4-chlorobenzyl)piperazin-1-yl]propyl}thiocarbamate dihydrochloride monohydrate] |  | IC50 [2]: 0.12 µM
Cc1ccc(CN2CCN(CCCS)CC2)cc1 [Example 17, 3-[4-(4-Methylbenzyl)piperazin-1-yl]propanethiol dihydrochloride] |  | IC50 ([1]; Homo sapiens): 24 µM
Cc1ccc(CN2CCN(CCCSC(=O)Nc3ccccc3)CC2)cc1 [Example 18, N-Phenyl-S-{3-[4-(4-methylbenzyl)piperazin-1-yl]propyl}thiocarbamate dihydrochloride sesquihydrate] | > 1000 | 
CC1CN(Cc2ccc(Cl)cc2)C(C)CN1CCCSC(=O)Nc1ccccc1 (stereo not drawn) [Example 20, N-Phenyl-S-{3-[4-(4-chlorobenzyl)-2,5-dimethylpiperazin-1-yl]propyl}thiocarbamate dihydrochloride] | > 1000 | 
CC(c1ccccc1)N1CCN(CCCSC(=O)Nc2ccccc2)CC1 (stereo not drawn) [Example 22, N-Phenyl-S-{3-[4-(1-phenylethyl)piperazin-1-yl]propyl}thiocarbamate dihydrochloride dihydrate] | 67 | 
O=C(Nc1ccccc1)SCCCN1CCN(CCc2ccccc2)CC1 [Example 24, N-Phenyl-S-[3-(4-phenethylpiperazin-1-yl)propyl]thiocarbamate dihydrochloride monohydrate] | > 1000 | 
SCCCN1CCN(CCc2ccc(Cl)cc2)CC1 [Example 25, 3-[4-(4-Chlorophenethyl)piperazin-1-yl]propanethiol dihydrochloride] | 5 | IC50 [3]: 5 µM; IC50 [4]: 4 µM
O=C(Nc1ccccc1)SCCCN1CCN(CCc2ccc(Cl)cc2)CC1 [Example 26, N-Phenyl-S-{3-[4-(4-chlorophenethyl)piperazin-1-yl]propyl}thiocarbamate dihydrochloride monohydrate] | 25 | IC50 [2]: 0.06 µM
CCCCc1ccc(NC(=O)SCCCN2CCN(CCc3ccc(Cl)cc3)CC2)cc1 [Example 27, N-(4-n-Butylphenyl)-S-{3-[4-(4-chlorophenethyl)piperazin-1-yl]propyl}thiocarbamate dihydrochloride] | 30 | 
COc1cc(NC(=O)SCCCN2CCN(CCc3ccc(Cl)cc3)CC2)cc(OC)c1OC [Example 29, N-(3,4,5-Trimethoxyphenyl)-S-{3-[4-(4-chlorophenethyl)piperazin-1-yl]propyl}thiocarbamate dihydrochloride] | 9 | IC50 [2]: 0.18 µM
O=C(Nc1ccccc1)SCCCN1CCN(c2ccc(F)cc2)CC1 [Example 35, N-Phenyl-S-{3-[4-(4-fluorophenyl)piperazin-1-yl]propyl}thiocarbamate dihydrochloride] | > 1000 | 
O=C(Nc1ccccc1)SCCN1CCN(Cc2ccc(Cl)cc2)CC1 [Example 37, N-phenyl-S-{2-[4-(4-chlorobenzyl)piperazin-1-yl]ethyl}thiocarbamate dihydrochloride] | 3 | 
COc1ccc(NC(=O)SCCCN2CCN(CCCc3ccc(Cl)cc3)CC2)cc1 [Example 39, N-(4-Methoxyphenyl)-S-{3-[4-[3-(4-chlorophenyl)propyl]piperazin-1-yl]propyl]thiocarbamate dihydrochloride hemihydrate] | 13 | 
CCCCCCNC(=O)SCCCN1CCN(Cc2ccc(Cl)cc2)CC1 [Example 40, N-(n-Hexyl)-S-{3-[4-(4-chlorobenzyl)piperazin-1-yl]propyl}thiocarbamate dihydrochloride] | 71 | 
CCCCCCNC(=O)SCCCN1CCN(CC=Cc2ccccc2)CC1 [Example 44, N-(n-Hexyl)-S-[3-(4-cinnamylpiperazin-1-yl)propyl]thiocarbamate dihydrochloride] | > 1000 | 
SCCCN1CCCN(Cc2ccc(Cl)cc2)CC1 [Example 45, 3-[4-(4-Chlorobenzyl)homopiperazin-1-yl]propanethiol] | 3 | 
CCCCCCNC(=O)SCCCN1CCCN(Cc2ccc(Cl)cc2)CC1 [Example 46, N-(n-Hexyl)-S-{3-[4-(4-chlorobenzyl)homopiperazin-1-yl]propyl}thiocarbamatedihydrochloride] | 12 | 
CC(C)(C)NC(=O)SCCCN1CCN(Cc2ccc(Cl)cc2)CC1 [Example 47, N-(t-Butyl)-S-{3-[4-(4-chlorobenzyl)piperazin-1-yl]propyl}thiocarbamate dihydrochloride sesquihydrate] | 58 | 
